We go through 109 compounds from the RepoRT retention time repository.

A short description of the data set: Agilent ZORBAX 300 SB-C18, 150 × 1 mm, 3.5 µm; A: water + 0.01% heptafluorobutyric acid; B: acetonitrile + 0.01% heptafluorobutyric acid; gradient (min/%B) 0/0 100/90. The following applies: stereoisomer not certain.
On to `Nc1cc(-c2ccc(C(=O)c3ccccc3)c(N)c2)ccc1C(=O)c1ccccc1`, for which the LC retention time amounted to 16.4 min.
For `C=CCN(CC=C)CC=C`, the LC retention time is 7.98 min.
In the case of `O=C(CN1C(=O)c2ccccc2C1=O)Nc1ccccc1C(=O)N1CCN(c2ccccc2)CC1`, the LC retention time worked out at 13.1 min.
Regarding `Cc1[nH]c2ccccc2c1C=NNC(N)=S`, the LC retention time was 9.71 min.
On to `CC(=O)C1(O)CCC2C3C=CC4=CC(=O)CCC4(C)C3CCC21C` (centres undefined), for which the LC retention time came to 13.8 min.
For `Cc1[nH]c(C)c(C=O)c1C=O` the value was 7.42 min; for `Cc1cccc(-c2nc(=S)[nH][nH]2)c1`, 9.33 min.
On to `CN1CCN(C(=O)c2cc(C(C)(C)C)cc(C(C)(C)C)c2)CC1`, for which the LC retention time came to 11.6 min.
Turning to `CCOC(=O)c1ccc2[nH]c3c(c2c1)CCCC3C(=O)OCC` (centres undefined), the LC retention time came to 16.2 min.
The value for `NC(=O)c1ccc[n+](C2OC(COP(=O)(O)O)C(O)C2O)c1` (centres undefined) was 1.78 min; that for `NC(=O)CNc1ccc(C(N)=O)cc1` was 5.59 min.
The value for `CCOc1ccc(Cc2c(O)n(-c3ccc(CC)cc3)c(=O)[nH]c2=O)cc1` was 14.4 min.
`CN(C)c1ccc(C=NNC(=O)c2cccc(N)c2)cc1`: the LC retention time was 9.41 min.
For the compound `CC(=O)Nc1ccc(C(=O)NCc2ccccn2)cc1`, the LC retention time was determined as 7.41 min.
For `NC(=O)Nc1ccccc1` the value was 7.26 min; for `CC(C)c1ccccc1NC(=S)NCCN1CCN(C(=S)Nc2ccccc2C(C)C)CC1`, 12.5 min.
Take `CC(C)NC(=O)C(=O)NCCCO`: the LC retention time was 6.9 min.
The value for `Cc1[nH]c(C=O)c(C)c1C` was 10.3 min; that for `CC(=O)OC1(C(C)=O)CCC2C3CC(C)C4=CC(=O)CCC4(C)C3CCC21C` (centres undefined) was 17 min; that for `CCCCOC(=O)C1C(C)=NC(=O)NC1c1ccc(CC)cc1` (centres undefined) was 14.3 min.
In the case of `C=C(C)CC1C=CCC(CC(=C)C)N1` (centres undefined), the LC retention time was determined as 9.63 min.
`Cc1ccc(-c2noc(-c3ccc(C)cc3)c2C)cc1`: the LC retention time came to 19.3 min.
As for `O=c1c2ccccc2nnn1Cc1ccncc1`, the LC retention time worked out at 8.31 min.
Turning to `COc1ccc(Oc2ccc(-n3c(C)ccc3C)cc2)cc1`, the LC retention time is 18.9 min.
For `CNCc1cccn1C` the value was 7.09 min.
Take `C#CC(C)(C)N`: the LC retention time was determined as 6.38 min.
For `COC(=O)c1cccc(C(=O)OC)n1` the value was 8.45 min.
The value for `C=Cc1ccc(N)cc1` was 8.31 min.
As to `Cc1[nH][nH]c(=O)c1CCC(=O)NN=Cc1c(C)[nH]c2ccccc12`, the LC retention time was determined as 8.93 min.
For `c1c[nH]cn1` the value was 2.95 min.
For `Cc1ccc(NC(=O)c2ccc(N)cc2)cc1` the value was 10.9 min; for `Nc1ncc2[nH]cnc2n1`, 5.52 min; for `CCCOC(=O)c1ccc(NC(=O)c2ccc(C)cc2)cc1`, 16.2 min.
With `Cc1ccccc1C=NNC(N)=S`, the LC retention time came to 10.7 min.
For `O=CN1CCNCC1` the value was 2.79 min; for `Nc1ccc(C(=O)NC=C2CCCC2)cc1`, 7.87 min; for `CC(=O)NC(NC(C)=O)NC(C)=O`, 1.91 min.
For the compound `COC(=O)CCC(=O)Nc1ccc(C)cc1C`, the LC retention time is 11.7 min.
Consider `COc1cc(C2ON=C(CN3CCOCC3)C2C)c(OC)c2c1OCO2` (centres undefined), for which the LC retention time came to 9.6 min.
Consider `CC(=NNC(=O)c1cc2ccccc2cc1O)c1ccc(-c2ccccc2)cc1`, for which the LC retention time is 16.3 min.
With `CCc1ccc(C(c2c[nH]c3ccccc23)c2c[nH]c3ccccc23)cc1`, the LC retention time was found to be 18.2 min.
For `O=C(NNC(=O)C1CCCCC1C(=O)O)C(c1ccccc1)c1ccccc1` (centres undefined) the value was 11.8 min; for `Cc1ccc(Nc2ccccc2)cc1`, 16.5 min.
For the compound `Nc1ccc(NC(=O)c2cccc(C(=O)Nc3ccc(N)cc3)c2)cc1`, the LC retention time was 7.98 min.
With `COc1ccccc1NC(=O)C(=Cc1ccc(OC)c(OC)c1)NC(=O)c1ccccc1`, the LC retention time was 13.5 min.
`Cc1cccnc1C`: the LC retention time was found to be 6.67 min.
For the compound `O=c1nc(NN=Cc2cccnc2)cn[nH]1`, the LC retention time is 6.94 min.
The value for `C=Cn1ccnc1` was 6.3 min.
For `CNc1ccccn1` the value was 6.54 min; for `CCN(CC)C(=O)c1cc(NC(=O)c2ccc3c(c2)c(=O)n(C)c(=O)n3C)c(OC)c(OC)c1`, 11.7 min.
Regarding `CC(Nc1ccc2ccccc2c1)C(=O)NN=Cc1c2ccccc2cc2ccccc12` (centres undefined), the LC retention time amounted to 17.5 min.
As for `CC(=O)C1(O)CCC2C3CC(C)C4=CC(=O)CCC4(C)C3CCC21C` (centres undefined), the LC retention time is 15.2 min.
In the case of `CCc1ccc(N2CC(C(=O)Nc3ccc(N(C)C)cc3)CC2=O)cc1` (centres undefined), the LC retention time came to 10.4 min.
For the compound `CC1CC(O)(CC(O)(c2ccccc2)c2ccccc2)C(C)CN1C` (centres undefined), the LC retention time amounted to 10.2 min.
On to `COc1cc(Cc2cnc(N)nc2N)cc(OC)c1OC`, for which the LC retention time was determined as 8.69 min.
Regarding `c1cncc(Cn2cccc2)c1`, the LC retention time is 8.31 min.
Take `C=CCN1CCC23c4c5ccc(O)c4OC2C(=O)CCC3(O)C1C5` (centres undefined): the LC retention time came to 8.17 min.
For the compound `Cc1ccc(-n2c(C)cc(C=CC(=O)O)c2C)cc1`, the LC retention time was determined as 14.4 min.
With `O=C(NN=Cc1ccncc1)c1ccccc1`, the LC retention time came to 8.3 min.
For `CCC(O)(CC)c1ccccc1N`, the LC retention time was 8.79 min.
The value for `Cc1ccc(CCC(=O)O)cc1N` was 7.58 min; that for `Cc1cn(-c2ccccc2)[nH]c1=O` was 10.8 min.
Regarding `NC(=O)c1cc2ccccc2o1`, the LC retention time stood at 9.05 min.
Regarding `CCc1ccc(C(=O)CC(Nc2ccccc2)c2ccccc2)cc1` (centres undefined), the LC retention time was 18.4 min.
For `COc1cc(C=CC(=O)c2ccc3c(c2)OCO3)cc(OC)c1OC` the value was 14.7 min; for `Nc1ccc(N2CCCC2=O)cc1N1CCCC1=O`, 7.63 min; for `CCCCn1c2ccccc2n2cc(C(C)(C)C)nc12`, 12.2 min.
For the compound `CC(=O)NC(NC(C)=O)c1ccncc1`, the LC retention time came to 5.53 min.
Turning to `CCCCC1(C)NC(=S)N(c2ccc(C)cc2)N1` (centres undefined), the LC retention time was 15.1 min.
The value for `Cc1ccc(-n2c(O)c(C=Nc3ccc(O)cc3C)c(=O)[nH]c2=O)cc1` was 10.9 min; that for `NCCNCCNCCN` was 7.5 min; that for `C(=NNc1nncc2ccccc12)c1cccnc1` was 8.37 min.
For `CC(C)NC(C)C` the value was 7.12 min.
With `Nc1ccc(C(O)(c2ccc(N)cc2)c2ccc(N)cc2)cc1`, the LC retention time was determined as 9.07 min.
Regarding `CCCCc1c(O)c2ccccc2n(-c2ccccc2)c1=O`, the LC retention time was 14.5 min.
For `Cc1ccsc1C=CC(=O)c1ccc2ccccc2c1`, the LC retention time came out at 18.5 min.
Take `c1ccc2c(c1)Cc1cc3ccccc3nc1-2`: the LC retention time amounted to 11.4 min.
In the case of `CN1CCN(C(=O)c2nn(C)c(=O)c3ccccc23)CC1`, the LC retention time was found to be 7.52 min.
On to `N=C(N)SCCSCCSC(=N)N`, for which the LC retention time is 7.21 min.
Take `CNCCCCCCNC`: the LC retention time stood at 7.03 min.
For `CCCCCCCCCCCCCN`, the LC retention time is 14 min.
With `O=C(Nc1cccnc1)c1ccccn1`, the LC retention time stood at 8.14 min.
On to `COc1ccc(N)cc1`, for which the LC retention time was determined as 7.59 min.
With `Cc1ccncc1C`, the LC retention time is 6.82 min.
The value for `OCC1CCCN2CCCCC12` (centres undefined) was 6.81 min.
`CCc1ccc(N2CC(C(=O)O)CC2=O)cc1` (centres undefined): the LC retention time was found to be 10.5 min.
Regarding `Cc1ccc(CN2C(=O)CCC2=O)o1`, the LC retention time worked out at 9.52 min.
For the compound `COc1ccc(OCc2nc3ccccc3nc2C)cc1`, the LC retention time came out at 14.1 min.
In the case of `COc1ccc(-c2cc(=O)c3ccc(OC)c(OC)c3o2)cc1OC`, the LC retention time amounted to 12.7 min.
Take `COc1ccc(NC(C)c2ccccc2)cc1` (centres undefined): the LC retention time came out at 10.7 min.
`NC(CO)(CO)CO`: the LC retention time came to 2.86 min.
Consider `Cc1cccn2cc(-c3cccs3)cc12`, for which the LC retention time came to 17 min.
For the compound `CCCCCCCCCN(C)C`, the LC retention time was determined as 11.1 min.
For `CN(C)CCN(Cc1ccccc1)c1ccccn1` the value was 10.1 min; for `O=C(C=Cc1cccc(O)c1)c1ccccc1O`, 12.2 min; for `Nc1ccc(CN2CCCC2)cc1`, 7.04 min.
Regarding `O=C1CC(N2CCN(C(c3ccccc3)c3ccccc3)CC2)C(=O)N1c1ccccc1` (centres undefined), the LC retention time came out at 11.2 min.
As for `NC1CCOCC1`, the LC retention time is 4.24 min.
The value for `Cn1ccc2cc(C=O)ccc21` was 11.3 min.
Regarding `OCCNCc1ccccc1`, the LC retention time was 7.72 min.
In the case of `COc1cc(C=CC(=O)c2ccc(C)cc2)cc(OC)c1OC`, the LC retention time is 15.9 min.
For `Cc1ccc(C=CC(=O)c2ccccc2O)cc1`, the LC retention time was determined as 16.1 min.
With `CCN(CC)CC(=O)Nc1c(C)cc(C)cc1C`, the LC retention time turned out to be 9.28 min.
For `COCCCN`, the LC retention time amounted to 5.72 min.
As for `NCc1ccccc1`, the LC retention time is 7.6 min.
On to `O=CC1CCN(Cc2ccccc2)CC1`, for which the LC retention time came out at 7.84 min.
With `CC(C)NCC(O)COc1ccc(COCCOC(C)C)cc1` (centres undefined), the LC retention time turned out to be 10 min.
Turning to `O=C(O)CC(CNC(=O)CCCCCN1C(=O)c2ccccc2C1=O)c1ccccc1` (centres undefined), the LC retention time came out at 11.6 min.
Regarding `C=CC[n+]1ccc2ccccc2c1`, the LC retention time is 7.67 min.
